{
  "source": "patent US8858952B2",
  "about": "“Methods and materials for generating T cells” (Mayo Foundation for Medical Education and Research, priority 2009, dated 2014)",
  "key": {"[1]": {"system": "FR74-specific T cells", "experiment": "IFN-γ ELIspot of T cell cultures generated ex vivo with polypeptide-pulsed DC", "assay_type": "cell-based, FVB/N mice", "description": "FIG. 4 is a graph plotting the results an IFN-γ ELIspot analyses of T cell cultures incubated with the indicated polypeptides. Epitope nesting greatly augments the numbers of antigen-specific T cells. T cells were tested in ELIspot against native FR74 polypeptide at various concentrations. Each data point is the mean of 3 determinations.\nFIG. 6. FR74-specific T cells generated with modified polypeptides recognized tumor lysates. […] Each bar is the mean (±s.e.m.) of 3 replicates.\nFIG. 7. […] The T cells were generated at varying concentrations of polypeptides (x-axis). Each point is the mean (±s.e.m.) of 3 replicates.\nIn terms of proliferation, only the dual modified polypeptide was able to generate T cells that were able to proliferate at 10^−9 g/mL (FIG. 5).\nIn order to determine whether furin cleavage is required, two methods are used: furin insensitive linkers and furin inhibitors. Blockade of enhanced ex vivo expansion mediated by the DC3 peptide using these two methods is powerful evidence, outside of a furin knockout mouse, that furin is required for the actions of DC3. Although it has already been shown that DC3 must be linked to antigen, as a control T cells are expanded using free FR74 mixed with free DC3. To test the role of furin with furin-insensitive linkers, RARR (SEQ ID NO:4) is replaced with VRVV (SEQ ID NO:41) with the polypeptides FR74.1, FR74.3, and FR74.8 as shown in FIG. 17. In parallel with these cultures, cultures are included in which inhibitors are included. The stoichiometric peptidyl inhibitor decanoyl-Arg-Val-Lys-Arg-CH2CL (SEQ ID NO:42) and α1-antitrypsin Portland, which are the two most commonly used inhibitors, are employed. […] Cultures are examined over a range of concentrations of inhibitors and assayed as described with ELIspot and proliferation assays. To generate Th cells, CD4^+ T cells are purified by incubation of splenocytes with anti-CD4^+ MACS microbeads (Miltenyi, Auburn, Calif.) for 20 minutes at 4° C., followed by positive selection of CD4^+ T cells using an AutoMACS automatic magnetic cell sorter according to the manufacturer's specifications. Th cell lines are established with bone marrow derived DC at a concentration of 5×10^4 T cells/mL in 24-well tissue culture-treated plates in complete medium on day 0. To derive the dendritic cells (DCs), bone marrow is harvested from the long bones of FVB/N mice and seeded in 6-well plates (3×10^6/well) in complete media with murine GM-CSF (10 ng/mL) and IL-4 (1 ng/mL). Media and cytokines are replaced after 3 days. On day 5, CPG is added to the cultures at 1 μg/mL, and the cells are ready for T cell induction on day 6. The tissue culture-generated DC are pulsed with 10 μg/mL FR74 peptide or its modifications and 10 μg/mL B7DC-crosslinking antibody at 37° C. for 4 hours. In these experiments, constant mass is maintained. Next, the peptide-loaded DC are washed with media, and the CD4+ T cells are added, and on days 8 and 10, IL-2 (50 U/mL) is added. On day 15, cells are assayed. For the ELIspot analysis, anti-IFN-γ (Pharmingen) antibody is added to a 96-well nitrocellulose-backed plate (NC-plate, Millipore) at 50 μL/well at a concentration of 10 μg/mL in PBS and incubated overnight at 4° C. The day of analysis, the NC-plate is washed with PBS and blocked for 1-2 hours at 37° C. with PBS/2%BSA. After blocking, the plate are again washed. The Th cells are transferred to the antibody-coated plates. Syngeneic naïve CD4 T cells alone without peptide antigen are used as the negative control. Th cells are seeded at 5×10^4 cells/well with a range of native (i.e., FR74) peptide, irrelevant peptide, FRαMMC tumor lysate, irrelevant tumor lysate, media or concanavalin A. Irradiated syngeneic splenocytes are added at 1 ×10^5 cells/well as antigen-presenting cells. The plate is incubated at 37° C. for 24 hours. The plate are washed with PBS/0.05% Tween-20, and 100 μL/well biotinylated anti-IFN-γ(5 μg/mL, Pharmingen) antibody are added to each well. […]"}, "[2]": {"system": "ovarian tumor", "experiment": "Vaccination of ovarian tumor-bearing mice with native or nested epitope", "assay_type": "in vivo", "conditions": "spleens and lymph nodes, day 50; FIGS. 32, 33", "description": "Each bar is the mean of three mice, each done in triplicate. P values, comparing FR74-specific responses, were calculated using Tukey-Kramer Multiple Comparisons test.\nEach bar is the mean of 3 mice, each done in triplicate. P values, comparing FR74-specific responses or tumor weights, were calculated using Tukey-Kramer Multiple Comparisons test.\nMice were implanted with ovarian tumor and 10 days later were treated with PBS, native epitope FR74 (2150 μg/kg in 100 μL injected at the base of the tail), or nested epitope FR74.4 (5000 μg/kg in 100 μL injected at the base of the tail) over the course of a week. On day 50, the mice were sacrificed and spleen, lymph node, and tumor tissue was harvested. T cell responses and tumor weights were then estimated. The number of FR74-specific T cells in the spleens and lymph nodes was determined (FIG. 32). T cells were estimated using an IFN-γ ELIspot assay testing responses against native FR74 (black bars) or an irrelevant peptide (white bars). In addition, the proliferation of T cells, in response to native FR74 (black bars) or an irrelevant peptide (white bars), was measured in the spleens and lymph nodes (FIG. 33). T cell proliferation was estimated using a tritiated thymidine assay.\nIn addition, the weight of the greater omentum (a surrogate of total tumor burden) 50 days following last immunization was measured (FIG. 34C)."}},
  "note": "Where no end group is shown, it is not given here. [ ]: non-standard residue; d: D form. Ava = NCCCCC(=O)O",
  "data": [
    {"substance": "FR74.4: dual conjugated polypeptide: FR74 nested between Ii-key and DC3 (Ac-LRMK[Ava]KDISYLYRFNWNHCGRARRFYPSYHSTPQRP)", "values": [
      {"measurement": "response of generated T cells to naturally processed antigen", "setting": "[1]; DC pulsed with FRα-expressing tumor cells, FIG. 6", "result": "retain the capability to respond to naturally processed antigen"},
      {"measurement": "lowest peptide concentration at which generated T cells respond", "setting": "[1]; IFN-γ ELIspot against native FR74, FIG. 4", "result": "10^−9 g/mL"},
      {"measurement": "ex vivo generation of FR74-specific T cells under equal molar amounts", "setting": "[1]; equal molarity, FIG. 7", "result": "superior ex vivo generation of FR74-specific T cells relative to the native polypeptide"},
      {"measurement": "generation of FR74-specific T cells", "setting": "[1]; within 12 days of culture, compared to controls, equal masses, FIG. 4", "result": "T cell reactivity greater than either modification alone"},
      {"measurement": "immunogenicity as vaccine in tumor bearing mice (IFN-γ ELIspot and proliferation)", "setting": "[2]", "result": "more immunogenic than native epitopes"}
    ]}
  ]
}
